From the supplement of paper PMC10307832

Columns and labels:
Assay in all cases: relative viability (nuclei count vs DMSO), 5 days (fraction); higher = more cells survive
PC-3 [JPC-3] = test system: PC-3 [JPC-3]
In short: (§1)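 Dosing by pin tool came one day after lung cancer cell lines were seeded in 1536-well plates, using either one drug or a fixed anchor-drug dose plus five library-drug doses (not always all listed) in √10 steps. After 5 days, nuclei were counted on 4× images. Relative viability is treated-well nuclei count divided by vehicle-well nuclei count, and values are medians of duplicate plates.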

NCI-H520 = test system: NCI-H520
In short: as §1

COR-L 105 = test system: COR-L 105
In short: as §1

NCI-H1755 = test system: NCI-H1755
In short: as §1

LOU-NH91 = test system: LOU-NH91
In short: as §1

EMC-BAC-2 = test system: EMC-BAC-2
In short: as §1

SW 900 = test system: SW 900
In short: as §1

SK-MES-1 = test system: SK-MES-1
In short: as §1

EKVX = test system: EKVX
In short: as §1

LK-2 = test system: LK-2
In short: as §1

NCI-H1563 = test system: NCI-H1563
In short: as §1

CC(=O)O[C@@]12CO[C@@H]1C[C@H](O)[C@@]1(C)C(=O)[C@H](O)C3=C(C)[C@@H](OC(=O)[C@H](O)[C@@H](NC(=O)OC(C)(C)C)c4ccccc4)C[C@@](O)([C@@H](OC(=O)c4ccccc4)[C@H]21)C3(C)C [Docetaxel] + Nc1nc2[nH]cc(CCc3ccc(C(=O)N[C@@H](CCC(=O)O)C(=O)O)cc3)c2c(=O)[nH]1 [Pemetrexed] (partner 0.2 µM)
relative viability (PC-3 [JPC-3]; first compound 0.000632 µM): 0.713
relative viability (PC-3 [JPC-3]; first compound 0.002 µM): 0.513
relative viability (PC-3 [JPC-3]; first compound 0.006325 µM): 0.265
relative viability (PC-3 [JPC-3]; first compound 0.02 µM): 0.195
relative viability (NCI-H520; first compound 0.0002 µM): 0.691
relative viability (NCI-H520; first compound 0.000632 µM): 0.471
relative viability (NCI-H520; first compound 0.002 µM): 0.316
relative viability (NCI-H520; first compound 0.006325 µM): 0.207
relative viability (NCI-H520; first compound 0.02 µM): 0.159
relative viability (COR-L 105; first compound 0.0002 µM): 1.06
relative viability (COR-L 105; first compound 0.000632 µM): 1.12
relative viability (COR-L 105; first compound 0.002 µM): 0.656
relative viability (COR-L 105; first compound 0.006325 µM): 0.492
relative viability (COR-L 105; first compound 0.02 µM): 0.388
relative viability (NCI-H1755; first compound 0.0002 µM): 0.545
relative viability (NCI-H1755; first compound 0.000632 µM): 0.438
relative viability (NCI-H1755; first compound 0.002 µM): 0.453
relative viability (NCI-H1755; first compound 0.006325 µM): 0.367
relative viability (NCI-H1755; first compound 0.02 µM): 0.332
relative viability (LOU-NH91; first compound 0.0002 µM): 0.373
relative viability (LOU-NH91; first compound 0.000632 µM): 0.367
relative viability (LOU-NH91; first compound 0.002 µM): 0.311
relative viability (LOU-NH91; first compound 0.006325 µM): 0.338
relative viability (LOU-NH91; first compound 0.02 µM): 0.312
relative viability (EMC-BAC-2; first compound 0.0002 µM): 0.461
relative viability (EMC-BAC-2; first compound 0.000632 µM): 0.462
relative viability (EMC-BAC-2; first compound 0.002 µM): 0.464
relative viability (EMC-BAC-2; first compound 0.006325 µM): 0.361
relative viability (EMC-BAC-2; first compound 0.02 µM): 0.358
relative viability (SW 900; first compound 0.0002 µM): 0.462
relative viability (SW 900; first compound 0.000632 µM): 0.332
relative viability (SW 900; first compound 0.002 µM): 0.303
relative viability (SW 900; first compound 0.006325 µM): 0.281
relative viability (SW 900; first compound 0.02 µM): 0.24
relative viability (SK-MES-1; first compound 0.0002 µM): 0.971
relative viability (SK-MES-1; first compound 0.000632 µM): 0.907
relative viability (SK-MES-1; first compound 0.002 µM): 0.499
relative viability (SK-MES-1; first compound 0.006325 µM): 0.341
relative viability (SK-MES-1; first compound 0.02 µM): 0.197
relative viability (EKVX; first compound 0.0002 µM): 0.377
relative viability (EKVX; first compound 0.000632 µM): 0.392
relative viability (EKVX; first compound 0.002 µM): 0.288
relative viability (EKVX; first compound 0.006325 µM): 0.209
relative viability (EKVX; first compound 0.02 µM): 0.193
relative viability (LK-2; first compound 0.0002 µM): 0.172
relative viability (LK-2; first compound 0.000632 µM): 0.217
relative viability (LK-2; first compound 0.002 µM): 0.163
relative viability (LK-2; first compound 0.006325 µM): 0.119
relative viability (LK-2; first compound 0.02 µM): 0.131
relative viability (NCI-H1563; first compound 0.0002 µM): 0.701
relative viability (NCI-H1563; first compound 0.000632 µM): 0.843
relative viability (NCI-H1563; first compound 0.002 µM): 0.69
relative viability (NCI-H1563; first compound 0.006325 µM): 0.608
relative viability (NCI-H1563; first compound 0.02 µM): 0.374
